Data on 13 compounds can be found in patent US10005731B2, “Modulators of the retinoid-related orphan receptor gamma (ROR-gamma) for use in the treatment of autoimmune and inflammatory diseases” (Glaxo Group Limited, priority 2012, dated 2018).

Where a name gives a salt, the structure may show the parent alone.

For test [1], the target named is T1, Human RORγ Ligand Binding Domain (RORγ-LBD) (Homo sapiens, UniProt P51449).
T1 construct: made in house; host or cells: E. coli BL21(DE3), modified pET21a
T1 sequence (P51449 263-518): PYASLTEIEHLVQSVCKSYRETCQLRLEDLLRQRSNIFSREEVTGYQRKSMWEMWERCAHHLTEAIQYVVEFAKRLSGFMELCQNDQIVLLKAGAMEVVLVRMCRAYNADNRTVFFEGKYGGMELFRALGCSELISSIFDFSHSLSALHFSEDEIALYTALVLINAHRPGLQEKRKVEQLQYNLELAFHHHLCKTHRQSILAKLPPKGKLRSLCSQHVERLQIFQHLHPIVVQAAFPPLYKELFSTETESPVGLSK
The test is described as follows: Dual Fluorescence Energy Transfer (FRET) assay, RORγ-LBD / SRC1(2) co-activator peptide interaction. As to conditions: mean of multiple test results if tested more than once; read-out: pIC50 in the dual FRET assay (converted). Type of test: biochemical. An excerpt: This assay is based on the knowledge that nuclear receptors interact with cofactors (transcription factors) in a ligand dependent manner. RORγ is a typical nuclear receptor in that it has an AF2 domain in the ligand binding domain (LBD) which interacts with co-activators.
The assay measures ligand-mediated interaction of the co-activator peptide with the purified bacterial-expressed RORγ ligand binding domain (RORγ-LBD) to indirectly assess ligand binding. RORγ has a basal level of interaction with the co-activator SRC1(2) in the absence of ligand, thus it is possible to find ligands that inhibit or enhance the RORγ/SRC1(2) interaction.
Human RORγ Ligand Binding Domain (RORγ-LBD) was expressed in E.coli strain BL21(DE3) as an amino-terminal polyhistidine tagged fusion protein. DNA encoding this recombinant protein was sub-cloned into a modified pET21a expression vector (Novagen).
Approximately 50 g E. coli cell pellet was resuspended in 300 mL of lysis buffer (30 mM imidazole pH 7.0 and 150 mM NaCl). Cells were lysed by sonication and cell debris was removed by centrifugation for 30 minutes at 20,000 g at 4° C. […] The clarified lysate was loaded onto a column (XK-26) packed with ProBond Nickel Chelating resin (Invitrogen), pre-equilibrated with 30 mM imidazole pH 7.0 and 150 mM NaCl. After washing to baseline absorbance with the equilibration buffer, the column was developed with a gradient from 30 to 500 mM imidazole pH 7.0. Column fractions containing the RORγ-LBD protein were pooled and concentrated to a volume of 5 mls. The concentrated protein was loaded onto a Superdex 200 column pre-equilibrated with 20 mM Tris-CI pH 7.2 and 200 mM NaCl. The fractions containing the desired RORγ-LBD protein were pooled together.
Purified RORγ-LBD was buffer exchanged by exhaustive dialysis [3 changes of at least 20 volumes (>8000x)] against PBS [100mM NaPhosphate, pH 8 and 150mM NaC1]. […] The modified protein was distributed into aliquots, frozen on dry ice and stored at −80° C. The biotinylated RORγ-LBD was subjected to mass spectrometric analysis to reveal the extent of modification by the biotinylation reagent.
An appropriate amount of Europium labeled Streptavidin was then added to the biotinylated SRC1(2) solution in a tube to give a final concentration of 10 nM. The tube was inverted gently and incubated for 15 minutes at room temperature. Twenty-fold excess biotin from the 10 mM stock solution was added and the tube was inverted gently and incubated for 10 minutes at room temperature.
Preparation of APC labeled RORγ-LBD: biotinylated RORγ-LBD solution was prepared by adding an appropriate amount of biotinylated RORγ-LBD from the stock solution to a buffer containing 10 mM of freshly added DTT from solid to give a final concentration of 40 nM. An appropriate amount of APC labeled Streptavidin was then added to the biotinylated RORγ-LBD solution in a tube to give a final concentration of 20 nM. The tube was inverted gently and incubated for 15 minutes at room temperature. Twenty-fold excess biotin from the 10 mM stock solution was then added and the tube was inverted gently and incubated for 10 minutes at room temperature.
The reaction mixtures were incubated for 5 minutes. […] The plates were incubated for lhr and then read on ViewLux in Lance mode for EU/APC.

The subject of the next test is Mouse CD4+ cells. The test is described as follows: Th17 cell differentiation assay (IL-17 ELISA). The class given is cell-based. Conditions: 72 h, mean pIC50, IL-17 ELISA, 3 days culture, detection limit of the assay 5, read-out: pIC50 in the Th17 cell differentiation assay (converted). The method, then: Mouse CD4+cells were purified using the CD4+ T Cell Isolation II Kit according to manufacturer's instructions (Miltenyi Biotec). 96 well plates were pre-coated with anti-mCD3 antibody. Un-coated wells were used as controls. CD4+ Cells were resuspended in RPMI 1640 complete medium and were added to the 96-well plates. Cytokine cocktail and the compound were then added to the wells. Antibodies and cytokines (all from R&D Systems) used in the assay were selected from the following: anti-mCD3; anti-mCD28; anti-mIFNγ; anti-mIL4; mIL-6; mIL-23; mIL-1β; hTGF-β1. The culture was incubated at 37° C. for 3 days and supernatants were collected for ELISA. The IL-17 ELISAs were performed according to manufacturer's instructions (R&D Systems). The results were analyzed using Prism software with non-linear regression to determine pIC50.
For orientation: ELISA stands for enzyme-linked immunosorbent assay.

In test [2] the test system is Experimental Autoimmune Encephalomyelitis (EAE). The test is described as follows: EAE studies (Experimental Autoimmune Encephalomyelitis). The class given is in vivo, mice of the C57BL/6 (B6) strain. Conditions: orally twice a day from day 0; for EAE onset and clinical score: effect starting at 3, 10 or 30 mg/kg; for EAE onset: 30 mg/kg.

For the compound `Cc1ccc(C(=O)Nc2cc(Cl)cc(CN3CCN(C(=O)CC4CC4)[C@@H](C)C3)c2C)cn1` [Example 184, (S)-N-(5-chloro-3-((4-(2-cyclopropylacetyl)-3-methylpiperazin-1-yl)methyl)-2-methylphenyl)-6-methylnicotinamide], the IC50 in test [1] was around 200 nM; with Mouse CD4+ cells, around 83.2 nM. In test [2], the “EAE onset and clinical score” value is “delay EAE onset and lower clinical score”.
Take `Cc1c(NC(=O)c2ccc[nH]c2=O)ccc(F)c1CN1CCN(C(=O)C2CCCC2)[C@@H](C)C1` [Example 129, (S)-N-(3-((4-(cyclopentanecarbonyl)-3-methylpiperazin-1-yl)methyl)-4-fluoro-2-methylphenyl)-2-oxo-1,2-dihydropyridine-3-carboxamide, trifluoroacetic acid salt]: in the test with Mouse CD4+ cells, the IC50 was above 10000 nM.
Regarding `Cc1ccc(C(=O)Nc2cc(Cl)cc(CN3CCN(C(=O)[C@H]4C[C@@H](C)C4)[C@@H](C)C3)c2C)cn1` [Example 189, N-(5-chloro-2-methyl-3-(((S)-3-methyl-4-((cis)-3-methylcyclobutanecarbonyl)piperazin-1-yl)methyl)phenyl)-6-methylnicotinamide], the IC50 was around 50.1 nM in test [1] and around 5.13 nM with Mouse CD4+ cells.
With `Cc1ncc(C(=O)Nc2cc(Cl)cc(CN3CCN(C(=O)[C@H]4C[C@H](C)C4)[C@@H](C)C3)c2C)cn1` [Example 191, N-(5-chloro-2-methyl-3-(((S)-3-methyl-4-((trans)-3-methylcyclobutanecarbonyl)piperazin-1-yl)methyl)phenyl)-2-methylpyrimidine-5-carboxamide, trifluoroacetic acid salt], the results for the IC50 (in test [1]; in the test on Mouse CD4+ cells) were around 251 nM and around 26.3 nM, respectively. Besides, in test [2], the EAE onset result is listed as “delay EAE onset”.
As to `Cc1c(CN2CCN(C(=O)C3CC(F)(F)C3)[C@@H](C)C2)cc(F)cc1NC(=O)c1cccc(C#N)c1` [Example 175, (S)-3-cyano-N-(3-((4-(3,3-difluorocyclobutanecarbonyl)-3-methylpiperazin-1-yl)methyl)-5-fluoro-2-methylphenyl)benzamide, trifluoroacetic acid salt], the “EAE onset and clinical score” value in test [2] was “delay EAE onset and lower clinical score”.
`Cc1ccc(C(=O)Nc2cc(F)cc(CN3CCN(C(=O)[C@H]4C[C@H](C)C4)[C@@H](C)C3)c2C)cn1` [Example 186, N-(5-fluoro-2-methyl-3-(((S)-3-methyl-4-((trans)-3-methylcyclobutanecarbonyl)piperazin-1-yl)methyl)phenyl)-6-methylnicotinamide]: the IC50 is around 79.4 nM in test [1] and around 37.2 nM in the test with Mouse CD4+ cells.
With `Cc1ncc(C(=O)Nc2cc(Cl)cc(CN3CCN(C(=O)C4CCCC4)[C@@H](C)C3)c2C)cn1` [Example 192, (S)-N-(5-chloro-3-((4-(cyclopentanecarbonyl)-3-methylpiperazin-1-yl)methyl)-2-methylphenyl)-2-methylpyrimidine-5-carboxamide], the IC50 in the test with Mouse CD4+ cells was around 7.94 nM. Further, the “EAE onset and clinical score” value in test [2] is “delay EAE onset and lower clinical score”.
Turning to `Cc1ccc(C(=O)Nc2cc(F)cc(CN3CCN(C(=O)[C@H]4C[C@@H](C)C4)[C@@H](C)C3)c2C)cn1` [Example 185, N-(5-fluoro-2-methyl-3-(((S)-3-methyl-4-((cis)-3-methylcyclobutanecarbonyl)piperazin-1-yl)methyl)phenyl)-6-methylnicotinamide], the figures for the IC50 (in test [1]; in the test on Mouse CD4+ cells) were around 79.4 nM and around 20.9 nM, respectively.
For the compound `Cc1ccc(C(=O)Nc2cc(Cl)cc(CN3CCN(C(=O)C4CCCC4)[C@@H](C)C3)c2C)cn1` [Example 62, (S)-N-(5-chloro-3-((4-(cyclopentanecarbonyl)-3-methylpiperazin-1-yl)methyl)-2-methylphenyl)-6-methylnicotinamide], the EAE onset entry in test [2] is given as “delay EAE onset”.
On to `Cc1ncc(C(=O)Nc2cc(Cl)cc(CN3CCN(C(=O)[C@H]4C[C@@H](C)C4)[C@@H](C)C3)c2C)cn1` [Example 190, N-(5-chloro-2-methyl-3-(((S)-3-methyl-4-((cis)-3-methylcyclobutanecarbonyl)piperazin-1-yl)methyl)phenyl)-2-methylpyrimidine-5-carboxamide, trifluoroacetic acid salt], for which the figures for the IC50 (in test [1]; with Mouse CD4+ cells) were around 158 nM and around 12.9 nM, respectively. The EAE onset result in test [2] is “delay EAE onset”.
Turning to `Cc1cc(C(=O)Nc2cc(Cl)cc(CN3CCN(C(=O)C4CCCC4)[C@@H](C)C3)c2C)ccn1` [Example 187, (S)-N-(5-chloro-3-((4-(cyclopentanecarbonyl)-3-methylpiperazin-1-yl)methyl)-2-methylphenyl)-2-methylisonicotinamide], the IC50 in test [1] was around 126 nM; in the test on Mouse CD4+ cells, around 3.16 nM.
As to `Cc1ncc(C(=O)Nc2cc(F)cc(CN3CCN(C(=O)C4CCCC4)[C@@H](C)C3)c2C)cn1` [Example 20, (S)-N-(3-((4-(cyclopentanecarbonyl)-3-methylpiperazin-1-yl)methyl)-5-fluoro-2-methylphenyl)-2-methylpyrimidine-5-carboxamide], the IC50 in test [1] is around 100 nM; in the test with Mouse CD4+ cells it was around 31.6 nM. Further, in test [2], the “EAE onset and clinical score” value was “delay EAE onset and lower clinical score”.
On to `Cc1ccc(C(=O)Nc2cc(Cl)cc(CN3CCN(C(=O)[C@H]4C[C@H](C)C4)[C@@H](C)C3)c2C)cn1` [Example 188, N-(5-chloro-2-methyl-3-(((S)-3-methyl-4-((trans)-3-methylcyclobutanecarbonyl)piperazin-1-yl)methyl)phenyl)-6-methylnicotinamide], for which the IC50 was around 63.1 nM in test [1] and around 8.71 nM in the test on Mouse CD4+ cells.
